US4108991A, “N-aminosulfenyl derivatives of aldicarb” (priority 1976, dated 1978)

How the values were obtained:
Mexican bean beetle = assay: Systemic activity, soil-watering, Mexican bean beetle; format: in vivo, Epilachna varivestis Muls.; conditions: Epilachna varivestis, 48 h, systemic, BB, read-out: Percent Kill
Summary of the method: (§1)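 Compound in acetone/water with surfactant, diluted to target concentrations; 25 ml poured onto soil of potted host plants without touching foliage. After three days for translocation, leaves infested with beetle or armyworm larvae, aphids or mites; living and dead counted two days later.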

Plum curculio [1] = assay: Residual (7-day) contact activity, plum curculio; format: in vivo, Conotrachelus nenuphar [Herbst]; conditions: Conotrachelus nenuphar, 168 h, residual 7-day, PC, read-out: Percent Kill
Summary of the method: (§2)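 Treated surfaces were dried and weathered under normal light and air for 7 days before organisms were introduced. Southern armyworm and mites on dipped pinto bean leaves; milkweed bug and plum curculio in sprayed glass containers. Percent kill counted after 48 h exposure at 80° F, 50% RH.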

Milkweed bug [2] = assay: Initial contact activity, spray, milkweed bug; format: in vivo, Oncopeltus fasciatus [Dallas]; conditions: Oncopeltus fasciatus, 48 h, initial, MWB, 48 hours, read-out: Percent Kill
Summary of the method: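 Various active-ingredient concentrations, diluted with water from 1250 ppm. Contact exposure by dip, direct spray or dried residue depending on species; scored as percent kill at 48 h.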

Pea aphid [3] = assay: Residual (7-day) contact activity, pea aphid; format: in vivo, Acyrthosiphon pisum [Harris]; conditions: Acyrthosiphon pisum, 168 h, residual 7-day, PA, read-out: Percent Kill
Southern armyworm [4] = assay: Initial contact activity, leaf dip, southern armyworm; format: in vivo, Spodoptera eridania [Cram.]; conditions: Spodoptera eridania, foliar, 48 h, initial, AW, 48 hours, read-out: Percent Kill
Plum curculio [5] = assay: Initial contact activity, spray, plum curculio; format: in vivo, Conotrachelus nenuphar [Herbst]; conditions: Conotrachelus nenuphar, initial, PC, 48 hours, read-out: Percent Kill
Protocol: (§3) Initial Contact Activity: One half gram of test compound was dissolved in 40 ml of acetone and this solution was dispersed in 360 ml of water containing one drop of isooctylphenyl polyethoxyethanol. Aliquots of this solution, which corresponds to 1250 ppm of active ingredient, were diluted with an appropriate amount of water to provide solutions containing various concentrations of active ingredient. Test organisms and techniques were as follows: The activity against the Mexican bean beetle (Epilachna varivestis Muls.) and the southern armyworm (Spodoptera eridania [Cram.]) was evaluated by dipping the leaves of pinto bean plants into the test solution and infesting the leaves with the appropriate immature-form insects when the foiliage had dried; the activity against the pea aphid (Acyrthosiphon pisum [Harris]) was evaluated on broad bean plants whose leaves were dipped before infestation with adult aphids; the activity against two-sotted spider mites (Tetranychus urticae Koch) was evaluated on pinto bean plants whose leaves were dipped after infestation with adult mites; the activity against the milkweed bug (Oncopeltus fasciatus [Dallas]), and the plum curculio (Conotrachelus nenuphar [Herbst]) was evaluated by spraying the test solutions into glass dishes or jars containing the adult insects; the activity against the confused flour beetle (Tribolium confusum duVal) was evaluated by introducing the insects into glass dishes which had been previously sprayed with test solution and allowed to dry. All organisms in the test were maintained in a holding room at 80° F and 50% relative humidity for an exposure period of 48 hours. At the end of this time, the dead and living insects or mites were counted, and the percent kill was calculated.

rats = assay: Toxicity to rats, acute oral median lethal dose (LD50), Method A; format: in vivo, young female albino rats, derived from Sprague-Dawley stock; conditions: rat
Protocol: (§4) Method A: Young female albino rats, derived from Sprague-Dawley stock and weighing between 175 and 200 g, were used. An initial screening was conducted to determine the general level of toxicity of the test compounds and to establish the dosing range to be used with each compound. The test materials were suspended in corn oil and administered directly into the stomachs of the rats, using a hypodermic syringe equipped with a ball-tipped intubating needle. A range of dosing levels was employed utilizing two rats at each level. […] This method was used to determine the toxicity to rats of the compounds of Examples I, II, and III and aldicarb.

[6] = as above; format: in vivo, young female albino rats, derived from Sprague-Dawley stock; conditions: in vivo, rat, corn oil, 14 days observation
Protocol: as §4

Confused flour beetle = assay: Residual (7-day) contact activity, confused flour beetle; format: in vivo, Tribolium confusum duVal; conditions: Tribolium confusum, 168 h, residual 7-day, FB, read-out: Percent Kill
Protocol: as §3
Residual Contact Activity: The residual contact activity of the compounds was determined on the same organisms using the techniques described above, except that in each case the treated surface was allowed to dry and was exposed to normal light and air for seven days before introduction of the mites or insects.

Granary Weevil = assay: Initial contact activity, granary weevil; format: in vivo; conditions: Sitophilus granarius, 48 h, initial, GW, 48 hours, read-out: Percent Kill
Two-spotted spider mite [7] = assay: Systemic activity, soil-watering, two-spotted spider mite; format: in vivo, Tetranychus urticae Koch; conditions: Tetranychus urticae, 48 h, systemic, SM, read-out: Percent Kill
Summary of the method: as §1

Southern armyworm [8] = assay: Residual (7-day) contact activity, southern armyworm; format: in vivo, Spodoptera eridania [Cram.]; conditions: Spodoptera eridania, 168 h, residual 7-day, AW, read-out: Percent Kill
Summary of the method: as §2

Two-spotted spider mite [9] = assay: Initial contact activity, leaf dip, two-spotted spider mite; format: in vivo, Tetranychus urticae Koch; conditions: Tetranychus urticae, foliar, 48 h, initial, SM, 48 hours, read-out: Percent Kill
Milkweed bug [10] = assay: Residual (7-day) contact activity, milkweed bug; format: in vivo, Oncopeltus fasciatus [Dallas]; conditions: Oncopeltus fasciatus, 168 h, residual 7-day, MWB, read-out: Percent Kill
Summary of the method: as §2

Pea aphid [11] = assay: Initial contact activity, leaf dip, pea aphid; format: in vivo, Acyrthosiphon pisum [Harris]; conditions: Acyrthosiphon pisum, foliar, 48 h, initial, PA, 48 hours, read-out: Percent Kill

For `CSC(C)(C)C=NOC(=O)N(C)SN1CCOCC1` [Example II, 2-methyl-2-(methylthio)propanol O-[(N-methyl-N-morpholinosulfenyl)carbamoyl]oxime], the mortality at 39 ppm (Mexican bean beetle; 39 PPM) was 58%, the mortality at 156 ppm (Mexican bean beetle; 156 PPM) was 100% and the mortality at 156 ppm (Plum curculio [1]; 156 PPM) was 10%. It also gave a mortality at 312 ppm (Plum curculio [1]; 312 PPM) of 5%, a mortality at 1250 ppm (Plum curculio [1]; 1250 PPM) of 37% and a mortality at 10 ppm (Milkweed bug [2]; 10 PPM) of 25%. For the same compound, the mortality at 39 ppm (Milkweed bug [2]; 39 PPM) was 100%, the mortality at 156 ppm (Milkweed bug [2]; 156 PPM) was 100% and the mortality at 1250 ppm (Milkweed bug [2]; 1250 PPM) was 100%. The mortality at 156 ppm (Pea aphid [3]; 156 PPM) was 0%, the mortality at 312 ppm (Pea aphid [3]; 312 PPM) was 0% and the mortality at 1250 ppm (Pea aphid [3]; 1250 PPM) was 93%. For the same compound, the mortality at 156 ppm (Southern armyworm [4]; 156 PPM) was 0%, the mortality at 312 ppm (Southern armyworm [4]; 312 PPM) was 0% and the mortality at 625 ppm (Southern armyworm [4]; 625 PPM) was 70%. For the same compound, the mortality at 1250 ppm (Southern armyworm [4]; 1250 PPM) was 100%, the mortality at 10 ppm (Plum curculio [5]; 10 PPM) was 0% and the mortality at 39 ppm (Plum curculio [5]; 39 PPM) was 5%. The mortality at 156 ppm (Plum curculio [5]; 156 PPM) was 47%, the mortality at 1250 ppm (Plum curculio [5]; 1250 PPM) was 100% and the “LD50 relative to that of aldicarb” value (rats) was 2.4 times. The “Enhancement LD50 Derivative/LD50 Aldicarb” value (rats; ratio to aldicarb) was 2.4, the LD50 at 336 h [6] was 1.2 mg/kg and the mortality at 312 ppm (Confused flour beetle; 312 PPM) was 0%. The mortality at 1250 ppm (Confused flour beetle; 1250 PPM) was 2.5%, the mortality at 156 ppm (Granary Weevil; 156 PPM) was 100% and the mortality at 312 ppm (Granary Weevil; 312 PPM) was 100%. It also gave a mortality at 1250 ppm (Granary Weevil; 1250 PPM) of 100%, a mortality at 5 ppm (Two-spotted spider mite [7]; 5 PPM) of 1.4% and a mortality at 10 ppm (Two-spotted spider mite [7]; 10 PPM) of 38%. It also gave a mortality at 39 ppm (Two-spotted spider mite [7]; 39 PPM) of 69%, a mortality at 312 ppm (Southern armyworm [8]; 312 PPM) of 64% and a mortality at 1250 ppm (Southern armyworm [8]; 1250 PPM) of 55%. The mortality at 10 ppm (Two-spotted spider mite [9]; 10 PPM) was 100%, the mortality at 39 ppm (Two-spotted spider mite [9]; 39 PPM) was 100% and the mortality at 156 ppm (Two-spotted spider mite [9]; 156 PPM) was 100%. The mortality at 1250 ppm (Two-spotted spider mite [9]; 1250 PPM) was 100%, the mortality at 156 ppm (Milkweed bug [10]; 156 PPM) was 100% and the mortality at 312 ppm (Milkweed bug [10]; 312 PPM) was 100%. The mortality at 1250 ppm (Milkweed bug [10]; 1250 PPM) was 100%, the mortality at 10 ppm (Pea aphid [11]; 10 PPM) was 78% and the mortality at 39 ppm (Pea aphid [11]; 39 PPM) was 100%. For the same compound, the mortality at 156 ppm (Pea aphid [11]; 156 PPM) was 100% and the mortality at 1250 ppm (Pea aphid [11]; 1250 PPM) was 100%.
